Like-named read-outs stand apart in the source and are kept apart here.

Four compounds from patent publication US7479267B2, “Cell-or organ-differentiation controllers and method of controlling morphogenesis by using the same” (Okayama Prefecture, priority 2000, dated 2009) can be followed below.

The test system of experiment [1] is Arabidopsis thaliana wild type plant Ler. Briefly: Regulation of flowering time in wild type plant Ler. The experiment is classed as in vivo. The method, then:
(§1) Arabidopsis thaliana late-flowering mutant fca (Accession No. N167) obtained from Arabidopsis Stock Center publicly established at the University of Nottingham (U.K.) and wild type plant Ler (Accession No. NW20) were grown at 23° C. under a day length condition of 16-h light/8-h dark cycle at 100 μE/m^2 light intensity and used in the experiments. As a medium, soil consisting of 2 Vermiculite (Asahi Kogyo), 2 Kureha molding for raising seedlings (KUREHA chemical industry Co., Ltd.) and 1 Vermiculite (Asahi Kogyo), which are stacked in layer as the lower, middle and the upper layers, respectively, was used.
(§2) BSO was dissolved in water at a final concentration of 10^−1M and used as a stock solution. Then, the treatment solutions at 10^−3-10^−7M were prepared from the stock solution (FIGS. 1-3). Two to three plants were placed per a pot (about 40×50 mm) and the treatment solution was added dropwise around the shoot apex at 5 ml/day per a pot. The treatment was performed on day 0 (the initiation date of treatment), 1, 3, 5 and 7, which set of treatments was regarded as one processing.
(§3) Glutathione treatment was performed after dissolving glutathione into the BSO solution at a concentration of 10^−4 M.
(§4) The effect of treatment was estimated based on the number of rosette leaves and the elongation rate of floral stem. […] Cold treatment was performed at 4° C. concurrently with a chemical treatment.
(§5) (3) BSO treatment and glutathione (GSH) treatment was concurrently performed. BSO solution (concentration: 10^−4 M) to which glutathione was added was used in the same manner as described above.

Experiment [2] deals with Nicotina tabacum L. callus. Put plainly: Regulation of formation of adventitious bud in callus. The following applies: 0.1 mM BSO, 1 mM GSH or 1 mM GSSG in adventitious formation medium; 3 weeks after induction. The experiment is classed as cell-based. The protocol:
Nicotina tabacum L. leaves grown aseptically was callused in a callus-inducible medium (an essential medium consisting of 1% agar and Murashige and Skoog medium (MS medium) supplied with 0.1 mg/L benzyladenine (BA) and […] naphthaleneacetic acid (NAA)). The resultant callus was transferred to an adventitious formation medium (an essential medium consisting of 1% agar and Murashige and Skoog medium (MS medium) supplied with 1 mg/L BA and […] NAA). To the adventitious-formation medium, 0.1 mM BSO, 1 mM GSH or 1 mM GSSG (oxidized glutathione) was added as a redox-state regulator. The same medium lacking in supplements was prepared and used as a control medium.

The subject of experiment [3] is Arabidopsis thaliana late-flowering mutant fca. The format is in vivo. The protocol:
as §1, §2, §3, §4, §5
(§6) An aqueous solution of hydrogen peroxide was prepared immediately before use. Two to three plants were placed per a pot (about 40×50 mm). On 17 days after imbibition and thereafter, the treatment solution was added dropwise around the shoot apex at 5 ml/day per a pot. The treatments were performed on day 0 (the initiation date of treatment), 1, 3, 5 and 7, which set of treatments was regarded as one processing. The time of floral transition was compared using the rosette leaf number as an index. […] The values are expressed as mean±standard error.
as §6, with “As a redox-state regulator” for “An aqueous solution”, “cells, KCN or NaN3 was used. KCN or sodium azide” for “hydrogen peroxide”, “use and used at concentrations described in FIG. 6 or 7, respectively.” for “use.”, “mm)” for “mm). On 17 days after imbibition”, “and” for “and thereafter, the”, “pot. KCN or NaN3 treatment was started 17 days after imbibition.” for “pot.”

Experiment [4] has the same test system. The experiment is classed as in vivo. The protocol: as §1, §2
The effect of treatment was estimated based on the number of rosette leaves and the elongation rate of floral stem. […]
An aqueous solution of hydrogen peroxide was prepared immediately before use. […] The values are expressed as mean±standard error.
This is another data set of the same source.

In experiment [5] the test system is Zinnia elegans L. (cv. Scarlet Frame). The following applies: 60 mM hydrogen peroxide; 2 days after imbibition (FIG. 9). The protocol: Soft papers were laid in plastic dishes (100×15 mm) and seeded with Zinnia elegans L. (cv. Scarlet Frame) (15 seeds/dish). To the dish was added a solution of hydrogen peroxide up to 15 ml, and allowed to germinate (light condition, 50 μE/m^2, 16-h light/8-h dark cycle; temperature 27° C.). Aqueous solutions each containing hydrogen peroxide at the concentrations indicated in FIG. 9 were prepared immediately before use and applied to the seeds. Observation was performed on 2 days after imbibition (see FIG. 9). In the figure, the concentration of hydrogen peroxide (unit: mM) used in treatment is shown at the right downside of each panel.

Experiment [6] relates to Glycine max (cv: Tanbaguro). The following applies: hydrogen peroxide 10^−3M; 23° C.; 1 week after imbibition; microscope. The protocol: Soft papers were laid in plastic dishes (100×15 mm) and seeded with Glycine max (cv: Tanbaguro). To the dish was added 15 ml of an aqueous solution of hydrogen peroxide (10^−3M) for imbibition.
In experiment [7] the test system is Arabidopsis thaliana wild type plant Ler. As to conditions: hydrogen peroxide 10^−3M; 23° C.; 1 week after imbibition; microscope. The method, then:
Soft papers were laid in plastic dishes (100×15 mm) and seeded with Arabidopsis thaliana wild type plant Ler. To the dish was added 15 ml of an aqueous solution of hydrogen peroxide (10^−3M) for imbibition. Germination was allowed to arise at 23° C. and the root hair formation was observed 1 week after imbibition under a microscope.

Experiment [8] deals with Triticum aesivum L. (cv. Shirasagi). The following applies: 144 hours (6 days) after imbibition; hydrogen peroxide concentrations of FIG. 8.
Excerpt: Soft papers were laid in plastic dishes (100×15 mm), and seeded with Triticum aesivum L. (cv. Shirasagi) or Oryza sativa L. (cv. Nipponbare) (15 seeds/dish). […] In the figure, the values are expressed as mean±standard error.

Turning to `CCCCS(=N)(=O)CCC(N)C(=O)O` [BSO, L-buthionine sulfoximine], the bolting result in experiment [1] (Ler grown in an agar medium containing BSO just after germination) is “the bolting was delayed”. The transition to flowering result in experiment [1] (Ler, BSO treatment started 12 days after imbibition (FIG. 1B)) is given as “significantly accelerated”. Further, the Adventitious buds/callus in experiment [2] is listed as 30 or more buds/callus. The flowering time entry in experiment [3] (fca, BSO treatment started 12 days after imbibition (FIG. 1A)) was “delayed”. In addition, in experiment [3] (fca, BSO treatment started 17 days after imbibition, result 1 week afterward (FIG. 1C)), the “rosette leaf number compared with the water treated control group” value is on record as “decreased”. Also, in experiment [4] (fca, BSO treatment started day 17, monitored for several months (FIG. 2)), the “elongation rate of floral stem” value was “faster than that of control group”.
Turning to `N[C@@H](CCC(=O)N[C@@H](CS)C(=O)NCC(=O)O)C(=O)O` [GSH, glutathione], in experiment [1] (Ler, GSH given concurrently with BSO 10^−4 M, at the time when BSO accelerates flowering (FIG. 3A)), the “transition to flowering with increasing GSH concentration” value is reported as “delay of the transition to flowering as GSH concentration increased”. Besides, the Adventitious buds/callus in experiment [2] was 2-3 buds/callus. Further, in experiment [3] (in vivo), the “transition to flowering at 1 mM GSH” value is “delay of the transition to flowering” and the “transition to flowering with increasing GSH concentration” value was “acceleration of the transition to flowering as GSH concentration increased first”.
Turning to `OO` [hydrogen peroxide], in experiment [5], the cotyledon opening entry was “occurred earlier”; the “order of emergence of cotyledons and root at germination” value is “cotyledons came out from the pericarp before root did”. Also, in experiment [3] (in vivo), the “time of floral transition based on the rosette leaf number” value is reported as “accelerated”. Moreover, the root hair formation entry in experiment [6] is given as “not in the dish treated with hydrogen peroxide solution”. Moreover, the “elongation rate of floral stem” value in experiment [4] (in vivo) was “accelerated”. For the same compound, in experiment [7], the root hair formation entry is “not in the dish treated with hydrogen peroxide solution”. Moreover, the “cell elongation (length of coleoptile)” value in experiment [8] is listed as “cells were elongated”.
With oxidized glutathione [GSSG], the Adventitious buds/callus in experiment [2] is recorded as 2-3 buds/callus.
